Results published in patent US11015216B2, “Substituted imidazo[1,2-a]pyrazines as luciferase substrates” (PROMEGA CORPORATION, priority 2016, dated 2021).

Assays:
Assay type in all cases: biochemical
[1] = target: NanoLuc® Luciferase (Oplophorus gracilirostris, UniProt Q9GV45, A31E/A60N/A81I/F95D/I117V/K70R/L54V/L99Q/M102K/N193R/P142E/Q151K/Q38R/Q45L/V71I/Y165I); conditions: ratio to coelenterazine (=1); for I (relative light units, ratio in comparison to native coelenterazine): initial light output three minutes after substrate addition; for Half-life (signal half-life, ratio in comparison to native coelenterazine): read at five minute intervals
Method: (§1) Luminescence Assay Procedure: Each compound to be screened was dissolved in DMSO (5 mM) and then further diluted to 100 uM in NANO-GLOR Luciferase Assay Buffer. Each diluted substrate was then combined in equal volumes with purified NanoLuc® Luciferase diluted into CO2 independent media+10% FBS. Initial light output for each substrate was measured in a GloMax®-Multi+ luminometer three minutes after substrate addition and then at five minute intervals as a means to determine signal half-life.
A subset of the synthesized coelenterazine analogues (compounds of formula (I)) were evaluated for their suitability as luciferase substrates. NANOLUC® luciferase was employed for the screening because it is a small (19 kDa), stable, and particularly bright enzyme.

[2] = tested on: luciferase; experiment: Additional luciferase substrate assay, compared to known analogue C-1 (Table 3); conditions: relative to C-1 (=1)
Method: as §1
The compounds of formula (I) were also evaluated for their ability to be luciferase substrates in an additional assay.

[3] = tested on: luciferase; experiment: as above; conditions: relative to C-1 (=1); cell marked (75) instead of @100 uM

NanoLuc® Luciferase, sequence (Q9GV45 other isoform, or with tags, fused parts or gaps with the stated changes): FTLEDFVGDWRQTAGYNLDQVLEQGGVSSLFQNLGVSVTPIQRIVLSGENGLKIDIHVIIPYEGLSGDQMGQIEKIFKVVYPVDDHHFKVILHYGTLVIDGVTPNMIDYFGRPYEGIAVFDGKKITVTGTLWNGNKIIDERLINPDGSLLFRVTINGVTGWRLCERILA

Compound | I (relative light units, ratio in comparison to native coelenterazine) [1] | Half-life (signal half-life, ratio in comparison to native coelenterazine) [1] | RLU (@100 uM) [2] | RLU [3]
O=c1c(Cc2ccc(F)cc2F)nc2c(Cc3ccccc3)[nH]c(-c3ccccc3)cn1-2 [Compound 3] | 38.75 | 0.23 | 0.93 | –
O=c1c(Cc2ccc3ccccc3c2)nc2c(Cc3ccccc3)[nH]c(-c3ccccc3)cn1-2 [Compound 4] | 9.166 | 0.72 | 0.22 | –
CC(C)(C)c1ccc(Cc2nc3c(Cc4ccccc4)[nH]c(-c4ccccc4)cn-3c2=O)cc1 [Compound 5] | 3.875 | 0.43 | 0.093 | –
O=c1c(Cc2cc3ccccc3s2)nc2c(Cc3ccccc3)[nH]c(-c3ccccc3)cn1-2 [Compound 6] | 13.75 | 0.33 | 0.33 | –
O=c1c(Cc2csc3ccccc23)nc2c(Cc3ccccc3)[nH]c(-c3ccccc3)cn1-2 [Compound 7] | 4.166 | 0.52 | 0.1 | –
COc1ccc(Cc2nc3c(Cc4ccccc4)[nH]c(-c4ccccc4)cn-3c2=O)cc1 [Compound 8] | 23.333 | 0.38 | 0.56 | –
Nc1ccc(Cc2nc3c(Cc4ccccc4)[nH]c(-c4ccccc4)cn-3c2=O)cc1 [Compound 9] | 1.041 | 0.93 | 0.025 | –
O=C(O)c1ccc(Cc2nc3c(Cc4ccccc4)[nH]c(-c4ccccc4)cn-3c2=O)cc1 [Compound 10] | 0.142 | 1.02 | 0.0034 | –
Cn1nnc2cc(Cc3nc4c(Cc5ccccc5)[nH]c(-c5ccccc5)cn-4c3=O)ccc21 [Compound 11] | 0.3 | 1.04 | 0.0072 | –
Cn1nc(-c2cccs2)cc1Cc1nc2c(Cc3ccccc3)[nH]c(-c3ccccc3)cn-2c1=O [Compound 12] | 0.192 | 0.57 | 0.0046 | –
Cc1noc(C)c1Cc1nc2c(Cc3ccccc3)[nH]c(-c3ccccc3)cn-2c1=O [Compound 13] | 0.583 | 2.64 | 0.014 | –
O=c1c(Cc2cn(-c3ccccc3)nc2-c2ccccc2)nc2c(Cc3ccccc3)[nH]c(-c3ccccc3)cn1-2 [Compound 14] | 0.042 | 2.15 | 0.001 | –
COc1ncc(Cc2nc3c(Cc4ccccc4)[nH]c(-c4ccccc4)cn-3c2=O)cn1 [Compound 15] | 0.583 | 0.88 | 0.014 | –
Cn1cc(Cc2nc3c(Cc4ccccc4)[nH]c(-c4ccccc4)cn-3c2=O)c(=O)n(C)c1=O [Compound 16] | 0.0042 | 0.005 | 0.0001 | –
O=c1c(Cc2ccc(F)c(O)c2)nc2c(Cc3ccccc3)[nH]c(-c3ccccc3)cn1-2 [Compound 20] | – | – | – | 0.29 (75)
COc1cc(F)ccc1Cc1nc2c(Cc3ccccc3)[nH]c(-c3ccccc3)cn-2c1=O [Compound 22] | – | – | – | 0.3 (75)
O=c1c(Cc2cccnc2)nc2c(Cc3ccccc3)[nH]c(-c3ccccc3)cn1-2 [Compound 64] | 2.75 | 3.03 | 0.066 | –

Compound | I (relative light units, ratio in comparison to native coelenterazine) [1] | Half-life (signal half-life, ratio in comparison to native coelenterazine) [1] | RLU (@100 uM) [2] | RLU [3]
O=c1c(Cc2ccc(F)nc2F)nc2c(Cc3ccccc3)[nH]c(-c3ccccc3)cn1-2 [Compound 65] | 10.833 | 0.62 | 0.26 | –
O=c1c(Cc2cncc(F)c2)nc2c(Cc3ccccc3)[nH]c(-c3ccccc3)cn1-2 [Compound 66] | 1.625 | 0.98 | 0.039 | –
O=c1c(Cc2cccnc2F)nc2c(Cc3ccccc3)[nH]c(-c3ccccc3)cn1-2 [Compound 67] | 4.583 | 1.14 | 0.11 | –
O=c1c(Cc2ccc(F)nc2)nc2c(Cc3ccccc3)[nH]c(-c3ccccc3)cn1-2 [Compound 68] | 12.916 | 0.93 | 0.31 | –
O=c1c(Cc2ccc(Cl)nc2)nc2c(Cc3ccccc3)[nH]c(-c3ccccc3)cn1-2 [Compound 69] | 7.5 | 0.35 | 0.18 | –
O=c1c(Cc2ccc(Br)nc2)nc2c(Cc3ccccc3)[nH]c(-c3ccccc3)cn1-2 [Compound 70] | 5 | 0.19 | 0.12 | –
COc1ccc(Cc2nc3c(Cc4ccccc4)[nH]c(-c4ccccc4)cn-3c2=O)cn1 [Compound 71] | 27.083 | 0.14 | 0.65 | –
COc1cncc(Cc2nc3c(Cc4ccccc4)[nH]c(-c4ccccc4)cn-3c2=O)c1 [Compound 72] | 1.208 | 0.88 | 0.029 | –
COc1ccc(Cc2nc3c(Cc4ccccc4)[nH]c(-c4ccccc4)cn-3c2=O)c(OC)n1 [Compound 73] | 6.666 | 0.93 | 0.16 | –
COc1nc(Cl)ccc1Cc1nc2c(Cc3ccccc3)[nH]c(-c3ccccc3)cn-2c1=O [Compound 74] | 3 | 1.09 | 0.072 | –
O=c1c(Cc2ccc(Cl)nc2Cl)nc2c(Cc3ccccc3)[nH]c(-c3ccccc3)cn1-2 [Compound 75] | 0.958 | 0.57 | 0.023 | –
CN(C)c1ccc(Cc2nc3c(Cc4ccccc4)[nH]c(-c4ccccc4)cn-3c2=O)cn1 [Compound 77] | 1.75 | 0.57 | 0.042 | –
O=c1c(Cc2c(F)cc(F)cc2F)nc2c(Cc3ccccc3)[nH]c(-c3ccccc3)cn1-2 [Compound 78] | 8.75 | 0.43 | 0.21 | –
N#Cc1cccc(Cc2nc3c(Cc4ccccc4)[nH]c(-c4ccccc4)cn-3c2=O)c1 [Compound 79] | 13.87 | 0.52 | 0.33 | –
O=c1c(Cc2cn3ccsc3n2)nc2c(Cc3ccccc3)[nH]c(-c3ccccc3)cn1-2 [Compound 80] | 2.166 | 1.62 | 0.052 | –
O=c1c(Cc2ccc(CN3CCOCC3)o2)nc2c(Cc3ccccc3)[nH]c(-c3ccccc3)cn1-2 [Compound 81] | 0.246 | 1.19 | 0.0059 | –
O=c1c(Cc2cnns2)nc2c(Cc3ccccc3)[nH]c(-c3ccccc3)cn1-2 [Compound 82] | 5.416 | 1.19 | 0.13 | –
